Laboratory results taken from patent publication US4017534A, “16-Fluoro-11-deoxy-13-dihydro-prostaglandin” (American Cyanamid Company, priority 1975, dated 1977).
Read-outs that look alike come from different tables or passages of the source.

Tests used:
[1] = tested on: gastric acid secretion; test: Gastric acid secretion inhibition, Shay-rat procedure; assay type: in vivo, rats (male, CFE strain); settings: intraduodenal dose 100 mg./kg. of body weight
Method: Gastric acid secretion inhibition can also be observed in an assay wherein acid secretion is stimulated as in the well-known "Shay-rat" procedure, which is carried out in the following manner.
The rats (male, CFE strain) were starved for 48 hours (water was given ad libitum) to permit evacuation of stomach contents. On the morning of the experiment, under ether anesthesia, the abdominal region was shaved and a midline incision (1-11/2 inch) was made with a scapel. With the help of a closed curved hemostat the duodenum was picked up. […]
The abdominal cavity was exposed by cutting with scissors and the esophagus close to the stomach was clamped off with a hemostat, the stomach was removed by cutting above the hemostat (the esophagus was cut) and between the two sutures. […] The supernatant was collected, volume measured and recorded, 2 drops of a phenolphthalein indicator (1% in 95% ethanol) were added and the solution was tritrated with 0.02N NaOH (or with 0.04N NaOH when large volumes of stomach contents were encountered) to pH 8.4 (because of usual coloring of the stomach contents, phenolphthalein was only used to permit visual indication that the end point was near) and the amount of acid present was calculated. […]

[2] = tested on: bronchospasms elicited by 5-hydroxytryptamine; test: Bronchodilator activity (intraduodenal route) against 5-hydroxytryptamine; assay type: in vivo, guinea pigs; design: key: 0: no activity; +: minimal activity; ++++: maximum activity
Method: (§1) The compounds of this invention are useful as bronchodilators for the treatment of asthma and chronic bronchitis. Bronchodilator activity is determined in guinea pigs against bronchospasms elicited by intravenous injections of 5-hydroxytryptamine, histamine or acetylcholine by the Konzett procedure. [See J. Lulling, P. Lievens, F. El Sayed and J. Prignot, Arzneimittel-Forschung, 18, 995 (1968).]
(§2) In Table A' which follows bronchodilator activity for representative compounds of this invention against one or more of three spasmogenic agents is reported. In this assay candidate compounds are suspended in 10% gum arabic solution and the suspension is administered by the intraduodenal route. The activity of the compound at any one dose is then investigated throughout the following hour (see above-cited reference, J. Lulling et al.). Potency is then reported as O, +, ++, +++, or ++++, wherein 0 represents no activity, + minimal activity and ++++ maximum activity.

[3] = tested on: bronchospasms elicited by histamine; test: Bronchodilator activity (intraduodenal route) against histamine; assay type: in vivo, guinea pigs; design: key: 0: no activity; +: minimal activity; ++++: maximum activity; settings: intraduodenal dose 10 mg./kg.
Method: as §1, §2

[4] = tested on: basal gastric acid secretion; test: Inhibition of total acid output in the acute gastric fistula rat; assay type: in vivo, Female Sprague-Dawley rats; settings: for ED50: Rattus norvegicus
Method: The compounds of this invention are also useful as inhibitors of gastric acid secretion and peptic ulcer formation and may be used for the treatment of gastric hyperacidity, gastric erosion, and peptic ulcer. Inhibition of basal gastric acid secretion can be determined by the following procedure.
Female Sprague-Dawley rats weighting 140-160 grams are fasted in individual cages for 18-24 hours. The rats are then lightly anesthetized with ether and their front teeth extracted to avoid destruction of the plastic cannula. A midline incision is then made and the stomach and duodenum exposed. A flanged polyvinyl tube is inserted into the fundic portion of the stomach and secured with a purse string suture line using 4-O Mersilene. The rat is then dosed by injection of the compound into the duodenum (1.0 ml. per 100 gram body weight). After dosing, the abdominal wall and skin are closed using metal wound clips. The rate is replaced in a cage containing a longitudinal slit to allow the polyvinyl tube to hang freely. An 8 ml. plastic collecting tube is attached to the flanged cannula and hangs freely below the cage. The first 30 minute sample is discarded designating this time as zero. The collecting tube is attached again and samples removed at the end of 60 and 120 minutes. These samples are referred to as "A" and "B" in the table. The hourly samples are then transferred to a 15 ml. centrifuge and centrifuged for 5-10 minutes. Total and sediment volume are then recorded with the supernatent volume being used as volume of secretion. A 1 ml. or less aliquot is then removed and placed in a 50 ml. beaker containing 10 ml. of distilled water. This sample is then titrated using 0.01N NaOH to pH 7.0 using a Beckman zeromatic pH meter. Volume, titratable acidity (meg.L) and total acid output (μeg/hour) are recorded. Percent inhibition is determined by comparison with the appropriate control. Groups of three rats were used for preliminary testing, and groups of six rats were used for dose-response evaluations. All compounds are administered in a vehicle consisting of 0.5% methocel, 0.4% tween 80, and saline at a constant volume of 1 ml./100 gram rat. Samples are dispersed by sonification. Percent inhibition is calculated on basis of concurrent vehicle control.
In Table B which follows is given the effect on total acid output after 120 minutes of a 10 mg./kg. dose of representative ketals of this invention. For comparison the result obtained with the corresponding 9-oxo derivative, l 9-oxo-15(S)-hydroxyprostanoic acid is included.
Dose response evaluation in the acute gastric fistual rat assay further illustrates the pronounced advantage of the novel ketals of this invention as gastric acid secretion inhibitors relative to the corresponding 9-oxo derivative.

[5] = tested on: bronchoconstriction induced by administration of pilocarpine; test: Bronchodilator activity by aerosol in dogs; assay type: in vivo; settings: for bronchodilator activity by aerosol: aerosol concentration 0.032%
Method: (§3) The novel ketals of this invention also show bronchodilator activity when administered by aerosol to dogs wherein bronchoconstriction was induced by administration of pilocarpine. […] This is very important since coughing is one of the damaging side effects reported in the literature when prostaglandin aerosols are administered to human subjects. [See Y. Kawakami et al., European Journal Clinical Pharmacology, 6, 127 (1973); M. F. Cuthbert, Brit. Med. Journ. 723 (Dec. 20, 1969); H. Herxheimer and I. Roetscher, European Journal Clinical Pharmacology, 3, 123 (1971).]

[6] = tested on: cough; test: Cough induction by aerosol in human; assay type: in vivo
Method: as §3

[7] = tested on: bronchospasms elicited by intravenous injections of 5-hydroxytryptamine; test: Bronchodilator activity (Konzett assay, intravenous) against 5-hydroxytryptamine; assay type: in vivo, guinea pigs; settings: Cavia porcellus, guinea pig, spasmogen 5-hydroxytryptamine, read-out: Bronchodilator Activity (Konzett Assays) ED50, 5-hydroxytryptamine
Method: as §1
(§4) In Table A which follows bronchodilator activity for representative compounds of this invention against one or more of three spasmogenic agents is expressed as an ED50 determined from the results obtained with three logarithmic cumulative intravenous doses.

[8] = tested on: bronchospasms elicited by intravenous injections of histamine; test: Bronchodilator activity (Konzett assay, intravenous) against histamine; assay type: in vivo, guinea pigs; settings: Cavia porcellus, guinea pig, spasmogen histamine, read-out: Bronchodilator Activity (Konzett Assays) ED50, histamine
Method: as §1, §4

[9] = tested on: bronchospasms elicited by intravenous injections of acetylcholine; test: Bronchodilator activity (Konzett assay, intravenous) against acetylcholine; assay type: in vivo, guinea pigs; settings: Cavia porcellus, guinea pig, spasmogen acetylcholine, read-out: Bronchodilator Activity (Konzett Assays) ED50, acetylcholine
Method: as §1, §4

[10] = 2 h, 10 mg./kg., intraduodenal route, rat, read-out: %-Inhibition of Total Acid Output After 120 Minutes
[11] = Table C, intraduodenal route, 1 hr. collection, read-out: ED50, 1 hr. collection (A)
[12] = Table C, intraduodenal route, 2 hr. collection, read-out: ED50, 2 hr. collection (B)

Compound | Bronchodilator potency, Spasmogenic Agent Histamine [3] | inhibition in vivo at 10 mg/kg [4, 10] | ED50 [4, 11] | ED50 [4, 12] | also measured
CCCCCC(O)CCC1CCC2(OCCO2)C1CCCCCCC(=O)O (racemic) [9,9-(ethylenedioxy)-15-hydroxy-prostanoic acid] |  |  |  |  | Percent Inhibition (gastric acid secretion, Shay rat) [1]: 56%
CCCCC[C@H](O)CC[C@H]1CCC2(OCC(C)(C)CO2)[C@@H]1CCCCCCC(=O)O [9,9-(2,2-dimethylpropylenedioxy)-15(S)-hydroxy-prostanoic acid] | + | 32% |  |  | Bronchodilator potency, Spasmogenic Agent 5-Hydroxytryptamine ([2]; intraduodenal dose 10 mg./kg.): +
CCCCC[C@H](O)CC[C@H]1CCC(=O)[C@@H]1CCCCCCC(=O)O [l 9-oxo-15(S)-hydroxyprostanoic acid, 1-15(S)-hydroxy-9-oxo-prostanoic acid, reference compound] |  |  | 18 mg/kg | > 25 mg/kg | bronchodilator activity by aerosol [5]: very weak; induction of cough by aerosol [6]: ketone aerosol does; inhibition in vivo at 12.5 mg/kg ([4]; 2 h, 12.5 mg./kg. dose, intraduodenal route, rat, read-out: %-Inhibition of Total Acid Output After 120 Minutes): 27%; potency relative to the ketals ([4]; total acid output, Table B): significantly less potent than the ketals
CCCCC[C@@H](CC[C@H]1CCC2(OC(C)C(C)O2)[C@@H]1CCCCCCC(=O)OC)OC(C)=O (stereo partly drawn) [l methyl 9,9-(1,2-dimethylethylenedioxy)-15(S)-acetoxyprostanoate] |  | 74% | 7 mg/kg | 7 mg/kg | 
CCCCC[C@@H](CC[C@H]1CCC2(OCCCO2)[C@@H]1CCCCCCC(=O)OC)OC(C)=O [l methyl 9,9-(1,3-propylenedioxy)-15(S)-acetoxy-prostanoate] | + | 60% | 6 mg/kg | 6 mg/kg | 
CCCCC[C@@H](CC[C@H]1CCC2(OCC(C)O2)[C@@H]1CCCCCCC(=O)OC)OC(C)=O (stereo partly drawn) [l methyl 9,9-(1-methylethylenedioxy)-15(S)-acetoxyprostanoate] |  |  |  |  | Bronchodilator potency, Spasmogenic Agent 5-Hydroxytryptamine ([2]; intraduodenal dose 10 mg./kg.): +
CCCCC[C@@H](CC[C@H]1CCC2(OCCO2)[C@@H]1CCCCCCC(=O)OC)OC(C)=O [l methyl 9,9-ethylenedioxy-15(S)-acetoxy-prostanoate] |  | 100% |  | 3 mg/kg | ED50 ([4]; 2 h, Table B, intraduodenal route, after 120 minutes, read-out: ED50 (inhibition of total acid output)): 3 mg/kg
CCCCC[C@@H](CC[C@H]1CCC2(SCCS2)[C@@H]1CCCCCCC(=O)OC)OC(C)=O [l methyl 9,9-ethylenedithia-15(S)-acetoxy-prostanoate] |  | 32% |  |  | 
CCCCC[C@@H](CC[C@H]1CCC2(OCC(CCl)O2)[C@@H]1CCCCCCC(=O)OC)OC(C)=O (stereo partly drawn) [l methyl-9,9-(1-chloromethylethylenedioxy)-15(S)-acetoxy-prostanoate] | + | 26% |  |  | 
CCCCC[C@H](O)CC[C@H]1CCC2(OC(C)C(C)O2)[C@@H]1CCCCCCC(=O)O (stereo partly drawn) [l-9,9-(1,2-dimethylethylenedioxy)-15(S)-hydroxy-prostanoic acid] | + | 57% | < 8 mg/kg | 8 mg/kg | 
CCCCC[C@H](O)CC[C@H]1CCC2(OCC(CCl)O2)[C@@H]1CCCCCCC(=O)O (stereo partly drawn) [l-9,9-(1-chloromethylethylenedioxy)-15(S)-hydroxy-prostanoic acid] |  | 99% | 6 mg/kg | 6 mg/kg | Bronchodilator potency, Spasmogenic Agent 5-Hydroxytryptamine ([2]; intraduodenal dose 3.2 mg./kg.): ++++
CCCCC[C@H](O)CC[C@H]1CCC2(OCCO2)[C@@H]1CCCCCCC(=O)O [l-9,9-(ethylenedioxy)-15(S)-hydroxy-prostanoic acid] |  | 63% | 1 mg/kg | 2.3 mg/kg | ED50 [7]: 0.00253 mg/kg; ED50 [8]: 0.000376 mg/kg; ED50 [9]: 0.0274 mg/kg; bronchodilator activity by aerosol [5]: fully-present; potency of the ketal relative to the ketone ([5]; aerosol, versus l 9-oxo-15(S)-hydroxyprostanoic acid): at least 10 times; induction of cough by aerosol [6]: does not induce cough
CCCCC[C@H](O)CC[C@H]1CCC2(OCCS2)[C@@H]1CCCCCCC(=O)O (stereo partly drawn) [l-9,9-(ethyleneoxythia)-15(S)-hydroxy-prostanoic acid] | + | 39% |  |  | 
CCCCC[C@H](O)CC[C@H]1CCC2(OCC(C)O2)[C@@H]1CCCCCCC(=O)O (stereo partly drawn) [l-15(S)-hydroxy-9,9-(1-methylethylenedioxy)-prostanoic acid] |  | 61% |  |  | ED50 [7]: 0.000104 mg/kg; ED50 [9]: 0.000644 mg/kg
l methyl 9,9-(2,2-dimethyl-1,3-propylenedioxy)-15(S)-acetoxy-prostenoate |  |  |  |  | %-Inhibition of Total Acid Output After 120 Minutes ([4]; 10 mg./kg., intraduodenal route, rat): 27%
